Laboratory results published in patent publication US20220162558A1, “METHOD FOR INDUCING DIFFERENTIATION OF STEM CELLS INTO CHONDROCYTES BY USING OLIGOPEPTIDES” (POSTERA HEALTH SCIENCE Inc., priority 2019, published 2022).
“Also recorded” adds a separate entry of the source.

Tests used:
Type in all cases: cell-based
[1] = test system: tonsil-derived mesenchymal stem cells (TMSCs); experiment: First-round screening: chondrogenic biomarker mRNA expression by real-time RT-PCR in 2D culture; conditions: tripeptide 10 μM, serum-free medium, after 7 days of incubation
Experimental: The medium was replaced every three days.
(§1) Total RNA was extracted from the cells by using a TRIZOL™ reagent (Invitrogen, USA). The mRNA concentration was assayed by Nano Drop 2000 spectrophotometer (Thermo Scientific, USA). cDNA was synthesized by ReverTra Ace® qPCR RT kit (Toyobo, Japan). mRNA expression levels were analyzed by real-time RT-PCR (CFX96™, Bio-Rad, USA) using IQ™ SYBR® Green Supermix (Bio-Rad, USA). The expression levels of target genes were calculated as 2^−ΔΔCt by the following calculation equation, and the primer sequences are shown in Table 1 below.
(§2) ΔΔCt=(gene A−GAPDH)−(gene A−GAPDH)control

[2] = test system: proteoglycan in tonsil-derived mesenchymal stem cells; experiment: Safranin O staining of sectioned 3D pellets; conditions: 3D pellet cultured 21 days, sections of 7 μm
Experimental: (§3) Tonsil-derived mesenchymal stem cells (passage 6) were enzymatically detached by trypsin treatment and counted by a hemocytometer. The tube was centrifuged in 500-g relative centrifugal force (RCF) for 10 minutes and incubated at 37° C. under 5% carbon dioxide for 24 hours. A cell pellet consisting of about 3.0×10^5 cells was formed in a conical polypropylene tube (15 mL). The FBS-containing growth medium was replaced by medium A containing a high-glucose DMEM supplemented with 1.0% (v/v) antibiotic/antimitotic solution, 1.0% (v/v) penicillin/streptomycin solution, 50 μg/mL ascorbate-2-phosphate, 40 μg/mL L-proline, and 1% ITS+Premix (final concentration: 10 μg/mL bovine insulin, 5.5 μg/mL transferrin, 5 μg/mL sodium selenite, 4.7 μg/mL linoleic acid, and 0.5 mg/mL BSA), and 100 nM dexamethasone. Pellets were cultured at 37° C. under 5% carbon dioxide for 21 days under the following three different conditions: 1) medium A only, 2) medium A supplemented with kartogenin, or 3) medium A supplemented with each tripeptides. Each medium was replaced every three days. Triplicate experiments were carried out for each system.

[3] = test system: COL II in tonsil-derived mesenchymal stem cells; experiment: Immunofluorescence assay of COL II protein in sectioned 3D pellets; conditions: 3D pellet culture, compared with control system and WFE- or WLE-treated system
Experimental: as §3, with “Triplicate experiments were carried out for each system.” left out
The stem cell pellets were fixed in formalin aqueous solution (10% v/v) and embedded in paraffin. […] Then, the sectioned cell pellet samples were deparaffinized by xylene, and analyzed by immunofluorescence using antibody, alcian blue staining, and safranin O staining to visualize COL II, sGAG and proteoglycan, respectively. […]

[4] = test system: sGAG in tonsil-derived mesenchymal stem cells; experiment: Alcian blue staining of sectioned 3D pellets; conditions: 3D pellet cultured 21 days, sections of 7 μm
Experimental: as §3

[5] = test system: tonsil-derived mesenchymal stem cells (TMSCs); experiment: 3D pellet culture: biomarker mRNA expression by real-time RT-PCR; conditions: tripeptide 10 μM, 3D pellet culture in chondrogenic medium
Experimental: as §3, §1, §2
The medium was supplemented with each tripeptide (10 μM), and tonsil-derived mesenchymal stem cells (size: ˜ mm) were prepared. Chondrogenic medium without tripeptide was used as control experiment. Medium supplemented with kartogenin (target molecule) instead of tripeptide was used for the purpose of comparing chondrogenic differentiation of tonsil-derived mesenchymal stem cells.

| Compound | chondrogenic biomarker expression at mRNA level (COL II, SOX 9, COMP) [1] | proteoglycan, safranin O staining [2] | COL II at protein level, red staining by immunofluorescence [3] | sGAG, alcian blue staining [4] | chondrogenic mRNAs of COL II, COMP and ACAN, expression [5] | expression levels of COL X and COL I α2 relative to control system ([5]; hypertrophy / osteogenic biomarkers) |
| --- | --- | --- | --- | --- | --- | --- |
| tyrosine-tyrosine-glutamic acid [YYE] | enhanced; also recorded: good promoter comparable to kartogenin | upregulated | distinguished for their red staining by COL II | upregulated | highly expressed | less than half of the control system |
| tryptophan-phenylalanine-glutamic acid [WFE] | enhanced | – | – | – | highly expressed | – |
| tryptophan-leucine-glutamic acid [WLE] | enhanced | – | – | – | highly expressed | – |
| O=C(O)c1ccccc1C(=O)Nc1ccc(-c2ccccc2)cc1 [kartogenin, reference compound] | – | – | distinguished for their red staining by COL II | – | – | – |
